Reference: patent US20240051978A1, “3-CYCLIC AMINE-INDOLE DERIVATIVES AS SEROTONERGIC AGENTS FOR THE TREATMENT OF CNS DISORDERS” (MINDSET PHARMA INC., priority 2020, published 2024)

Experiments:
[1] = target: human 5-HT2A (h5-HT2A) receptor (Homo sapiens (Human), UniProt P28223); assay: FLIPR assay, human 5-HT2A receptor under agonist mode; assay type: cell-based; conditions: FLIPR calcium
Description: I. Assessment of the Activated Effect of Exemplary Compounds of Formula I Targeting on Human 5-HT2A (h5-HT2A) Receptor Under Agonist Mode:
1. the Cells were cultured in cell culture medium (DMEM containing 10% FBS 1×penicillin-streptomycin 300 μg/ml G418 and 100 μg/ml hygromycin B) at 37° C., 5% (v/v) CO2.
2. One day before the assays, the cells were detached using TrypLE™ Express and cells were counted using cell counter.
3. 20000 cells/well were seeded in 30 μl/well culture medium to a 384-well cell plate and the cells were incubated overnight at 37° C., 5% (v/v) CO2.
4. On the assay day, 2× dye solution was prepared following the manual of the FLIPR® Calcium 6 Assay Kit: i. The dye was diluted with assay buffer(20 mM HEPES in 1×HBSS, PH7.4); ii. Probenecid was added to the final concentration of 5 mM; iii. Vortex vigorously for 1-2 minutes.
5. Medium was removed from cell plate by flicking the cell plate on towel papers.
6. 10 μl of assay buffer and 10 μl of 2× dye solution was added to each well of the cell plate.
7. The cell plate was placed on plate shaker, and the plate was agitated at 600 rpm for 2 minutes. The plate was incubated at 37° C. for 2 hours followed by additional 15-minute incubation at 25° C.
8. 3× compound in assay buffer was prepared: a. reference compounds were diluted to required concentration with DMSO. Compounds were added to a 384-well compound plate; b. Serial dilutions were performed; c. 10 mM test compounds were added to the compound plate, 3-fold serial dilutions were performed. d. […] 20 μl/well assay buffer was added to the compound plate; f. The plate was mixed on plate shaker for 2 mins;
i. The normalized fluorescence reading (RFU) was calculated as shown below, wherein Fmax and Fmin stand for maximum and minimum of calcium signal during defined time window: RFU=Fmax−Fmin
ii. The percentage activation was calculated by using following equation: […]
iii. EC50 was calculated by fitting % activation against log of compound concentrations with Hill equation using XLfit.

human 5-HT2A receptor = human 5-HT2A receptor (Homo sapiens (Human), UniProt P28223); assay: Radioligand binding assay ([3H]-ketanserin) on human 5-HT2A receptor; conditions: [3H]-ketanserin competition; read-out: h5-HT2A IC50
Description: • i. The assay buffer was prepared following the table below;
• ii. 8 doses of reference and exemplary test compounds were prepared starting from 10 mM stock solution as requested by 5-fold serial dilutions with 100%; • iii. (v/v) DMSO was prepared: a. 50 μl/well of 0.5% (v/v) PEI was added to UniFilter-96 GF/B plates. The plates were sealed and incubates at 4° C. for 3 hrs; b. After incubation, the plates were washed 3 times with ice-cold wash buffer (50 mM Tris, pH7.4); • iv. Preparation of assay plates: a. Cell membrane was diluted with assay buffer and 330 μl/well was added to 96 round deep well plates to reach a concentration of 20 μg/well; b. 8 concentrations of reference or exemplary test compounds were prepared and added 110 μl/well to 96 round deep well plates; c. [3H]-ketanserin was diluted with assay buffer to 5 nM (5× final concentration) and added 110 μl/well to 96 round deep well plates. • v. The plate were centrifuged at 1000 rpm for 30 secs and then agitated at 600 rpm, R.T. for 5 min. • vi. The plates were sealed and incubated at 27° C. for 90 min. • vii. The incubation was stopped by vacuum filtration onto GF/B filter plates followed by 4 times washing with ice-cold wash buffer (50 mM Tris, pH7.4). • vii. […] The filter plates were sealed and 40 μl/well of scintillation cocktail added. • x. The plate was read by using a Microbeta2 microplate counter.
For reference and exemplary test compounds, the results are expressed as % Inhibition, using the normalization equation: N=100−100×(U−C2)/(C1−C2), where U is the unknown value, C1 is the average of high controls, and C2 is the average of low controls. The IC50 was determined by fitting percentage of inhibition as a function of compound concentrations with Hill equation using XLfit.

[2] = Liver microsomes stability, human; conditions: for Remaining Percentage (%) 0 min / Remaining Percentage (%) 60 min: Human; for CLint scaled at 2 μM / half-life at 2 μM / microsomal CLint at 2 μM: human, microsomes
Description: (§1) The objective of this study was to estimate in vitro metabolic stability of 1-12 in pooled human and male mouse liver microsomes. The concentrations of parent compounds in reaction systems were evaluated by LC-MS/MS for estimating the stability in pooled human and male mouse liver microsomes. The in vitro intrinsic clearances of test compounds were determined as well.
(§2) A master solution in the “Incubation Plate” containing phosphate buffer, ultra-pure H2O, MgCl2 solution and liver microsomes was made according to Table 3. The mixture was pre-warmed at 37° C. water bath for 5 minutes.
(§3) 40 μL of 10 mM NADPH solution was added to each well. The final concentration of NADPH was 1 mM. The negative control samples were prepared by replacing NADPH with 40 μL of ultra-pure H2O. Samples were prepared in duplicate. Negative controls were prepared in singlet.
(§4) The reaction was started with the addition of 4 μL of 200 μM exemplary test compounds or control compounds to each master solution to get the final concentration of 2 μM. This study was performed in duplicate.
(§5) Aliquots of 50 μL were taken from the reaction solution at 0, 15, 30, 45 and 60 minutes. The reaction solutions were stopped by the addition of 4 volumes of cold methanol with IS (100 nM alprazolam, 200 nM imipramine, 200 nM labetalol and 2 μM ketoprofen). Samples were centrifuged at 3,220 g for 40 minutes. Aliquot of 90 μL of the supernatant was mixed with 90 μL of ultra-pure H2O and then was used for LC-MS/MS analysis.
(§6) LC/MS analysis was performed for all samples from this study using a Shimadzu liquid chromatograph separation system equipped with degasser DUG-20A5R; solvent delivery unit LC-30AD; system controller SIL-30AC; column oven CTO-30A; CTC Analytics HTC PAL System; Mass spectrometric analysis was performed using an Triple Quad™ 5500 instrument.
(§7) All calculations were carried out using Microsoft Excel. Peak area ratios of test compound to internal standard (listed in the below table) were determined from extracted ion chromatograms.
(§8) All calculations were carried out using Microsoft Excel. Peak areas were determined from extracted ion chromatograms. The slope value, k, was determined by linear regression of the natural logarithm of the remaining percentage of the parent drug vs. incubation time curve.
(§9) The in vitro half-life (in vitro t½) was determined from the slope value:
(§10) Conversion of the in vitro t½ (min) into the in vitro intrinsic clearance (in vitro CLint, in μL/min/mg proteins) was done using the following equation (mean of duplicate determinations): […]

[3] = Liver microsomes stability, rat; conditions: for Predicted hepatic CL: Rat liver microsomes, with NADPH; for Remaining Percentage (%) 0 min / Remaining Percentage (%) 60 min: Rat; for CLint scaled at 2 μM / half-life at 2 μM / microsomal CLint at 2 μM: rat, microsomes
Description: as §1, §2, §3, §4, §5, §6, §7, §8, §9, §10

[4] = Liver microsomes stability, mouse; conditions: for Remaining Percentage (%) 0 min / Remaining Percentage (%) 60 min: Mouse; for CLint scaled at 2 μM / half-life at 2 μM / microsomal CLint at 2 μM: male, mouse, microsomes
Description: as §1, §2, §3, §4, §5, §6, §7, §8, §9, §10

[5] = Human liver microsomes, with NADPH
[6] = Mouse liver microsomes, with NADPH

Row | Compound | EC50 [1] [µM] | IC50 (human 5-HT2A receptor) [µM] | Predicted hepatic CL [2, 5] [L/h/kg] | Remaining Percentage (%) 0 min ([2]; With NADPH) [%] | Remaining Percentage (%) 60 min ([2]; With NADPH) [%] | Remaining Percentage (%) 0 min ([2]; Without NADPH) [%] | Remaining Percentage (%) 60 min ([2]; Without NADPH) [%] | Predicted hepatic CL [3] [L/h/kg] | Remaining Percentage (%) 0 min ([3]; With NADPH) [%] | Remaining Percentage (%) 60 min ([3]; With NADPH) [%] | Remaining Percentage (%) 0 min ([3]; Without NADPH) [%] | Remaining Percentage (%) 60 min ([3]; Without NADPH) [%] | CLint scaled at 2 μM [3] [L/h/kg] | half-life at 2 μM [3] [h] | microsomal CLint at 2 μM [3] [µL/min/mg] | Predicted hepatic CL [4, 6] [L/h/kg] | Remaining Percentage (%) 0 min ([4]; With NADPH) [%] | Remaining Percentage (%) 60 min ([4]; With NADPH) [%] | Remaining Percentage (%) 0 min ([4]; Without NADPH) [%] | Remaining Percentage (%) 60 min ([4]; Without NADPH) [%] | also measured
1 | [2H]C([2H])N1C([2H])([2H])CC(c2c[nH]c3cccc(F)c23)C1([2H])[2H] (stereo not shown) [Compound I-41, 4-fluoro-3-(1-(methyl-d2)pyrrolidin-3-yl-2,2,5,5-d4)-1H-indole] | 1 to 10 | 1 to 10 | – | – | – | – | – | – | – | – | – | – | – | – | – | – | – | – | – | – | –
2 | [2H]C1([2H])CC(c2c[nH]c3cccc(O)c23)C([2H])([2H])N1 (stereo not shown) [Compound I-33, 3-(pyrrolidin-3-yl-2,2,5,5-d4)-1H-indol-4-ol] | > 10 | < 1 | 0.0744 | 100.00 | 96.89 | 100.00 | 115.64 | 0.909 | 100.00 | 70.49 | 100.00 | 105.30 | 1.25 | 1.98 | 11.7 | 0 | 100.00 | 103.45 | 100.00 | 118.32 | CLint scaled at 2 μM [2]: 0.0792 L/h/kg; half-life at 2 μM [2]: 22 h; microsomal CLint at 2 μM [2]: 1.05 µL/min/mg; T1/2 (min) ([4]; Mouse liver microsomes, with NADPH, 2 μM): ∞
3 | [2H]C([2H])N1CCC(c2c[nH]c3cccc(OCc4ccccc4)c23)C1 (single isomer, unassigned) [Compound I-36, 4-(benzyloxy)-3-(1-(methyl-d2)pyrrolidin-3-yl)-1H-indole] | > 10 | > 10 | 0.7506 | 100.00 | 46.97 | 100.00 | 112.84 | 2.014 | 100.00 | 23.82 | 100.00 | 95.23 | 5.14 | 0.483 | 47.8 | 4.497 | 100.00 | 4.62 | 100.00 | 101.31 | CLint scaled at 2 μM [2]: 1.9 L/h/kg; half-life at 2 μM [2]: 0.917 h; microsomal CLint at 2 μM [2]: 25.2 µL/min/mg; CLint scaled at 2 μM [4]: 26.9 L/h/kg; half-life at 2 μM [4]: 0.225 h; microsomal CLint at 2 μM [4]: 102 µL/min/mg
4 | [2H]C1([2H])CC(c2c[nH]c3cccc(OCc4ccccc4)c23)C([2H])([2H])N1 (stereo not shown) [Compound I-35, 4-(benzyloxy)-3-(pyrrolidin-3-yl-2,2,5,5-d4)-1H-indole] | < 1 | < 1 | 0 | 100.00 | 104.21 | 100.00 | 119.60 | 1.076 | 100.00 | 64.09 | 100.00 | 103.32 | 1.59 | 1.56 | 14.8 | 1.931 | 100.00 | 70.91 | 100.00 | 90.87 | T1/2 (min) ([2]; Human liver microsomes, with NADPH, 2 μM): ∞; CLint scaled at 2 μM [4]: 3.01 L/h/kg; half-life at 2 μM [4]: 2.02 h; microsomal CLint at 2 μM [4]: 11.5 µL/min/mg
